{"source": "patent US20250263404A1", "about": "“AMINOPYRIDINES AS ACTIVATORS OF PI3 KINASE” (UCL Business Ltd, priority 2021, published 2025)", "key": {"[1]": {"system": "PI3Kα-WT and PI3Kα-KO MEFs", "assay": "CellTiter-Glo ATP content in MEFs", "assay_type": "cell-based, mouse", "procedure": "A role for PI3Kα in activation of anabolic metabolism, cell cycle progression and cell proliferation is well-established.\nMEFs were seeded at 5000 cells per well in 96-well plates in DMEM supplemented with 10% FBS and 1% P/S, and allowed to attach overnight. The next day, cells were serum starved for 4 h prior to compound treatment in fresh serum-free DMEM. Compounds solubilised in DMSO were diluted 1:2 in a 12-point concentration response curve in DMSO. Intermediate plates were prepared by transferring 4 μl of compounds in DMSO into 96 μl of serum-free DMEM media. This was then used to treat cell plates by transferring 12.5 μl of solution from the intermediate plate into 87.5 μl of serum-free DMEM in the cell plates. […] Cell plates were incubated for 24 h, 48 h or 72 h at 37° C., 5% CO2, followed by determination of cell survival using the CellTiter-Glo® reagent according to manufacturer's instructions (Promega #G7571). Endpoint luminescence was measured using CLARIOstar (BMG). Compound data were analyzed using GraphPad Prism 8."}, "rat sciatic nerve": {"system": "rat sciatic nerve", "assay": "Rat sciatic nerve crush injury model", "assay_type": "in vivo", "details": "21 days", "procedure": "Stimulated by these observations, we next tested 1938 in the sciatic nerve crush model in the rat, an in vivo model of peripheral nerve injury and regeneration. […] Immediately after the nerve crush (FIG. 5e, i-ii), 1938 was delivered via a single intraneural injection into the proximal crush site (FIG. 5e, iii) and via a minipump implanted adjacent to the nerve (FIG. 5e, iv), loaded with 1938 solution, for continuous delivery for the duration of the experiment. Analyses were conducted 3 weeks after injury.\nAdult female Sprague Dawley rats (230-280 g, n=10, Charles River, UK) were anaesthetised by isoflurane inhalation in an induction chamber (5% isoflurane in O2, 0.8 l/min). Anaesthesia was maintained with 1.5-2.5% isoflurane inhalation, and the left sciatic nerve exposed at mid-thigh level.\nThe nerve was crushed by application of constant pressure using fully closed sterile type 4 tweezers (TAAB) for 15 sec. This was repeated two more times at the same point, with 45° rotation between each crush. The injury site was marked with a 10/0 epineurial non-absorbant suture (Ethicon). Following injury, frozen aliquots of 1938 solution and vehicle were defrosted. A single 2 μl injection of 1938 solution (5 μM in sterile H2O) or vehicle (sterile dH2O) was administered proximal to the crush site with a 10 μl Hamilton syringe. An osmotic minipump (Alzet 1004, Charles River, UK) was also implanted between the muscle layers, adjacent to the nerve oriented with the outlet nearest to the crush site, loaded with 1938 solution (100 μM in sterile H2O) or vehicle (sterile H2O). Animals were randomly assigned to groups (n=5 per group) and one experimenter was kept blind to condition for conducting functional and histological analyses. […]\nAt the end-point of the experiment (21 days), rats were anaesthetised and the sciatic nerve exposed as described above. […] The MI was manufactured using a previously documented protocol (Lancashire, H. T. et al. J Neural Eng 13, 034001 (2016). Electrode impedance of the MNI was 27.1±19.8 kΩ at 1k Hz. Compound muscle action potential (CMAP) was obtained by sciatic nerve stimulation with square wave pulses of 100 μsec with intensity from 1-10 mA. Stimulus was increased in 0.2 mA steps until muscle response amplitude no longer increased. CMAP amplitude was measured from peak to peak and recorded in triplicate for both the ipsilateral and contralateral side. The CMAP with the largest amplitude was selected for analysis.\nA modified multipoint stimulation technique was used to calculate Motor Unit Number Estimation (MUNE) (Shefner, J. M. et al. Muscle & nerve 34, 603-607 (2006); Jacobsen, A. B. et al. J Vis Exp (2018); Arnold, W. D. et al. J Vis Exp (2015)). […] The CMAP was divided by the mean magnitude of SMUPs to quantify MUNE. […]"}, "PI3Kα": {"biological_target": "PI3Kα (Homo sapiens, UniProt P42336)", "sequence (P42336 whole entry)": "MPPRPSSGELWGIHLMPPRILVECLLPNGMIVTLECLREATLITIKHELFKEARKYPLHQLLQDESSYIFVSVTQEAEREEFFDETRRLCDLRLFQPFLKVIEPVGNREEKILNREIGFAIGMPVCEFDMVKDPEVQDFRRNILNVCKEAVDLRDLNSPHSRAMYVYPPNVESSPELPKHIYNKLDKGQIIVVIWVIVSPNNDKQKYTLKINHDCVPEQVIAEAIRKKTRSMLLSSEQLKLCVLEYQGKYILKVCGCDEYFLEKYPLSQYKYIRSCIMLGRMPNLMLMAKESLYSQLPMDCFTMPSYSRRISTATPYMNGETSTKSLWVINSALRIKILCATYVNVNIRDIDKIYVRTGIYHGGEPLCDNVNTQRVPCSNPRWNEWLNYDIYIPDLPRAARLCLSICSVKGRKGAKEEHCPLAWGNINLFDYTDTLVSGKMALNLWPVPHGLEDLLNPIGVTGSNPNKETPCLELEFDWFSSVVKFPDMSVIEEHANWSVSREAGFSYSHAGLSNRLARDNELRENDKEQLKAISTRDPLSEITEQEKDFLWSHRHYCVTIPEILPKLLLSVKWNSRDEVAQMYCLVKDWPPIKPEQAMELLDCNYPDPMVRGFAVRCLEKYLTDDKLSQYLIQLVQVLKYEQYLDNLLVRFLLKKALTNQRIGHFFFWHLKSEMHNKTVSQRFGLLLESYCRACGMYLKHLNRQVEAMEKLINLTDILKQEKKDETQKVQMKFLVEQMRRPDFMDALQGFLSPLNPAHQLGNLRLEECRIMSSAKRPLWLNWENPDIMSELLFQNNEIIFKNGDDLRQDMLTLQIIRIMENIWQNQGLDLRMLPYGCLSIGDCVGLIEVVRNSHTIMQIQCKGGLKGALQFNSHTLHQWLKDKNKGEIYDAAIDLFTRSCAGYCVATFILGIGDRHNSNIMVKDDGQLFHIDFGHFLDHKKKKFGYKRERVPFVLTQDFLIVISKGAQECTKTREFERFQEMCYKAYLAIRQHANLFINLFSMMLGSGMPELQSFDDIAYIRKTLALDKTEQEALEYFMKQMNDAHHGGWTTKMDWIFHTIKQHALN", "sequence (P27986 whole entry partner)": "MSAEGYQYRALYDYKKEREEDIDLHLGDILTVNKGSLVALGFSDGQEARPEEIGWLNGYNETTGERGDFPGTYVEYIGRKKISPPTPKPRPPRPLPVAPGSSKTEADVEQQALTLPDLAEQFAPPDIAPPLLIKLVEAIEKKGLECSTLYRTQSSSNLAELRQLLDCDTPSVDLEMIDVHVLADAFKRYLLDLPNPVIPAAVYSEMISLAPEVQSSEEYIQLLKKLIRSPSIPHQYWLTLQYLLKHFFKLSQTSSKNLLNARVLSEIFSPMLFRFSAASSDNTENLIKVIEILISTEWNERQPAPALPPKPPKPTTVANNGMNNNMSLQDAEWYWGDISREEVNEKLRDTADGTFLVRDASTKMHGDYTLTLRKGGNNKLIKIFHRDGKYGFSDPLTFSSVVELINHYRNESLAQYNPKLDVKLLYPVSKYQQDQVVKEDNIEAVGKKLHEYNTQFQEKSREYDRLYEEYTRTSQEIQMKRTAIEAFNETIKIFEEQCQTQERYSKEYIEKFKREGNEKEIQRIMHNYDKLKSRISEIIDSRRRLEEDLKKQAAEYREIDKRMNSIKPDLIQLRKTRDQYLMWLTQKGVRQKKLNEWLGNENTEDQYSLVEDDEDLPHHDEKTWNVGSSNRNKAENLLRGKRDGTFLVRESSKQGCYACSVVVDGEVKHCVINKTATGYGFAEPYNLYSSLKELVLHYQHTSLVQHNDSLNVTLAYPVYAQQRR", "assay": "FRET membrane binding assay, PI3Kα", "assay_type": "biochemical", "set-up": "Full-length p110α was expressed in a complex with full-length p85α (for biochemistry and HDX-MS); 6xHis followed by TEV protease site (N); made in house; host or cells: Spodoptera frugiperda Sf9 (baculovirus co-infection; plasmids OP831 and OP809)", "details": "compared with pY", "procedure": "Membrane binding assays were performed as previously published (Burke, J. E. et al. Proc Natl Acad Sci USA 109, 15259-15264 (2012)). Briefly, liposomes were prepared with 5% (w/v) brain PtdIns(4,5)P2, 20% brain phosphatidylserine, 35% brain phosphatidylethanolamine, 15% brain phosphatidylcholine, 10% cholesterol, 5% sphingomyelin, and 10% dansyl-phosphatidylserine (Avanti Polar Lipids). PI3Kα was used at a final concentration of 0.5 μM. Protein solutions were preincubated with 10 μM pY or compounds for 10 min before addition of liposomes. Liposomes were used at a final concentration of 50 μg/ml. The reaction mixture contained 5 μl enzyme, 2 μl compound and 3 μl liposomes, all diluted in 30 mM HEPES, 50 mM NaCl, pH 7.4. The reaction was allowed to proceed for 10 min at room temperature in 384 black-polystyrene plates (Corning #3544) on an orbital shaker at 200 rpm. FRET signals were measured using PHERAStar (BMG) with a 280 nm excitation filter with 350 nm and 520 nm emission filters to measure Dansyl-PS FRET emissions, respectively. FRET signal shown as I-I0, where I is the intensity at 520 nm, and 10 is the intensity at 520 nm for the solution in the absence of protein."}}, "data": [{"smiles": "CCN1CCN(c2ccc(Nc3cc(Nc4cccc5c4N(C(C)=O)CC5)ccn3)cc2)CC1", "note": "[Example 1938]", "values": [{"measurement": "concentrations that decreased ATP levels (PI3Kα-independent effects)", "setting": "[1]; 24 h incubation, PI3Kα-WT and PI3Kα-KO MEFs", "value": "> 7.5", "unit": "µM"}, {"measurement": "concentrations with non-PI3Kα-dependent effects", "setting": "[1]; 48 h and 72 h incubation", "value": "≥ 2", "unit": "µM"}, {"measurement": "EC50", "setting": "[1]; Mus musculus, PI3Kα-WT MEFs, CellTiterGlo, read-out: EC50 of increase in metabolic activity (ATP content)", "value": "~500", "unit": "nM"}, {"measurement": "neurofilament- and ChAT-positive axons, treatment versus control", "setting": "rat sciatic nerve; 3 mm and 6 mm distal to the crush site", "value": "equivalent numbers"}, {"measurement": "number of ChAT-positive motor axons", "setting": "rat sciatic nerve; distal common peroneal nerve", "value": "an increase"}, {"measurement": "compound muscle action potential (CMAP) recovery", "setting": "rat sciatic nerve; tibialis anterior muscle", "value": "greater"}, {"measurement": "motor unit number estimation (MUNE)", "setting": "rat sciatic nerve; tibialis anterior muscle", "value": "increased"}, {"measurement": "binding of PI3Kα to lipid membranes, maximum level", "setting": "PI3Kα", "value": "about half of that induced by pY"}]}]}
